Experimental data from patent publication US20220402948A1, “EGFR INHIBITOR, COMPOSITION AND PREPARATION METHOD THEREFOR” (BETTA PHARMACEUTICALS CO., LTD., priority 2019, published 2022).

Columns and labels:
[1] = target: Ba/F3-EGFR wild-type cell line (Homo sapiens, UniProt P00533); test: Ba/F3-EGFR wild-type cell proliferation assay (CellTiter Glo, 72 hours); assay type: cell-based; conditions: Table 2, read-out: EGFR WT IC50
Procedure: Cell line: Ba/F3 cells with EGFR Δ19del/T790M/C797S mutation gene stably overexpressed named Ba/F3-Δ119del/T90M/C797S, and A431 and Ba/F3-EGFR wild-type cell line.
a) Centrifuge the growth cells in logarithmic phase at 1000 rpm for 5 minutes, resuspend the cells in culture medium, and then count the cells;
b) Inoculate the cells into a 96-well cell culture plate with a density of 2000 cells/well;
b) Incubate cells in an incubator for another 72 hours.
a) Take out the 96-well cell culture plate and add 50 μl CTG reagent (CellTiter Glo kit, promega, Cat #G7573);
b) Shake the plate for 2 minutes and let cool at room temperature for 10 minutes;
c) Read luminous signal value with PerkinElmer reader,
Analysis of Experimental Data
The data were analyzed by GraphPad Prism 6.0 software to obtain the fitting curve of compound activity.
Y=Min+(Max−Min)/(1+10^((Log IC50−X)*slope));
X: Logarithm of compound concentration; Y: luminous signal.

[2] = target: Ba/F3 cells with EGFR Δ19del/T790M/C797S mutation gene stably overexpressed (Homo sapiens, UniProt P00533, T790M/C797S, cells depend on it, form not given); test: Ba/F3-Δ19del/T790M/C797S cell proliferation assay (CellTiter Glo, 72 hours); assay type: cell-based; conditions: Table 2, read-out: EGFR Δ19del/T790M/C797S IC50
Procedure, shortened: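 Ba/F3 cells stably overexpressing wild-type EGFR or EGFR Δ19del/T790M/C797S were seeded at 2000 cells/well and incubated 72 h with compound. Viability was read by CellTiter-Glo luminescence, and IC50 came from a four-parameter logistic fit of signal against log concentration.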

A431 = A431 cell proliferation assay (CellTiter Glo, 72 hours); assay type: cell-based; conditions: Homo sapiens, A-431, 72 h, cell proliferation, A431, 72 hours, Table 2; read-out: A431 IC50
Procedure, shortened: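 Luminescence (CellTiter-Glo) after 72 h treatment gives viability, fitted by nonlinear regression to yield IC50. Cells seeded at 2000 per well; nine 3-fold concentrations from 1000 nM, DMSO final 0.1% (0.5% for certain compounds).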

EGFRΔ19del/T790M/C797S = EGFRΔ19del/T790M/C797S (Homo sapiens, UniProt P00533, T790M/C797S, form not given); test: EGFR Δ19del/T790M/C797S kinase test (mobility variation analysis, Caliper EZ Reader); assay type: biochemical; conditions: kinase enzymatic activity, Table 1
Procedure, shortened: (§1)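 Read-out is substrate-to-product conversion by mobility shift, stopped after incubation at room temperature with ATP and substrate, following a 10-minute room-temperature compound–enzyme pre-incubation. IC50 obtained by four-parameter variable-slope fitting of inhibition normalized between enzyme-free and uninhibited controls.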

IGF1R = IGF1R (Homo sapiens, UniProt P08069); test: IGF1R kinase test (mobility variation analysis, Caliper EZ Reader); assay type: biochemical; conditions: kinase enzymatic activity, Table 1; read-out: EGFR IGF1R IC50
Procedure, shortened: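 Mobility-shift readout of substrate conversion, normalised to positive (no compound) and negative (no kinase) controls, gives % inhibition and IC50 by four-parameter fit. Compounds, 3-fold dilutions over 10 concentrations starting at 3000 nM, preincubated 10 min with kinase before ATP/substrate start; room temperature.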

EGFR WT = EGFR WT (Homo sapiens, UniProt P00533); test: EGFR WT kinase test (mobility variation analysis, Caliper EZ Reader); assay type: biochemical; conditions: kinase enzymatic activity, Table 1
Procedure, shortened: as §1

Chain of Ba/F3-EGFR wild-type cell line (P00533 whole entry, stated change not applied): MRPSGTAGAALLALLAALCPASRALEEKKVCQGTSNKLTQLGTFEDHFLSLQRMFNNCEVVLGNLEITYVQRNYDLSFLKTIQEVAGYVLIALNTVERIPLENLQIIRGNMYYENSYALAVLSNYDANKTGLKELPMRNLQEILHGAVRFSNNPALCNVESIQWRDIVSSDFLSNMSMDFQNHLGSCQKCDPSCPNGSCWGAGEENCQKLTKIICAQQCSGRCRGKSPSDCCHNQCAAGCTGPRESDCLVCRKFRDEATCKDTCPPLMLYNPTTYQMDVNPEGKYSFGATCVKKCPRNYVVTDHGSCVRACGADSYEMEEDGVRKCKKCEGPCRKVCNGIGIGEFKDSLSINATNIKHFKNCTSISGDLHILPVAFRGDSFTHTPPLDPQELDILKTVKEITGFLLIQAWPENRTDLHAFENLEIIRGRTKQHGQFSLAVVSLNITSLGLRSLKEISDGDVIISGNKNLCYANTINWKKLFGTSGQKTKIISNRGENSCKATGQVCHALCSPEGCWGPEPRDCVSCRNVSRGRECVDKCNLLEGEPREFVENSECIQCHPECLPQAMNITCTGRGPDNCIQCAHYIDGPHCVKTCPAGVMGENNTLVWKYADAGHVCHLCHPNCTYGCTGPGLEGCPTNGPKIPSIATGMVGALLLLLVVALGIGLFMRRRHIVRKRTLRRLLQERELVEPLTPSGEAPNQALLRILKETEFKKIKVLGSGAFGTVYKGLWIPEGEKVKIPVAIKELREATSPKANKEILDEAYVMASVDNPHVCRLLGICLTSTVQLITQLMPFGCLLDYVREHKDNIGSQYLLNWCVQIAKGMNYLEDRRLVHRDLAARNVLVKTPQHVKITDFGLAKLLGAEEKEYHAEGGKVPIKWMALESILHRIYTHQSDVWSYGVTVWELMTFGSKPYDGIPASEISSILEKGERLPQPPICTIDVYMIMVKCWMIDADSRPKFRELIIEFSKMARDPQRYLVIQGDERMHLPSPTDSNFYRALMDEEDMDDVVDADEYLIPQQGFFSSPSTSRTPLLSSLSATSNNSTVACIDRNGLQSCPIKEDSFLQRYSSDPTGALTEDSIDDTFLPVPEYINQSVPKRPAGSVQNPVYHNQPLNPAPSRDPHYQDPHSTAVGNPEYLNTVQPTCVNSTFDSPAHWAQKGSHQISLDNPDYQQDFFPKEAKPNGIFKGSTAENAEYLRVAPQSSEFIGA
Chain of EGFR WT (P00533 25-1210): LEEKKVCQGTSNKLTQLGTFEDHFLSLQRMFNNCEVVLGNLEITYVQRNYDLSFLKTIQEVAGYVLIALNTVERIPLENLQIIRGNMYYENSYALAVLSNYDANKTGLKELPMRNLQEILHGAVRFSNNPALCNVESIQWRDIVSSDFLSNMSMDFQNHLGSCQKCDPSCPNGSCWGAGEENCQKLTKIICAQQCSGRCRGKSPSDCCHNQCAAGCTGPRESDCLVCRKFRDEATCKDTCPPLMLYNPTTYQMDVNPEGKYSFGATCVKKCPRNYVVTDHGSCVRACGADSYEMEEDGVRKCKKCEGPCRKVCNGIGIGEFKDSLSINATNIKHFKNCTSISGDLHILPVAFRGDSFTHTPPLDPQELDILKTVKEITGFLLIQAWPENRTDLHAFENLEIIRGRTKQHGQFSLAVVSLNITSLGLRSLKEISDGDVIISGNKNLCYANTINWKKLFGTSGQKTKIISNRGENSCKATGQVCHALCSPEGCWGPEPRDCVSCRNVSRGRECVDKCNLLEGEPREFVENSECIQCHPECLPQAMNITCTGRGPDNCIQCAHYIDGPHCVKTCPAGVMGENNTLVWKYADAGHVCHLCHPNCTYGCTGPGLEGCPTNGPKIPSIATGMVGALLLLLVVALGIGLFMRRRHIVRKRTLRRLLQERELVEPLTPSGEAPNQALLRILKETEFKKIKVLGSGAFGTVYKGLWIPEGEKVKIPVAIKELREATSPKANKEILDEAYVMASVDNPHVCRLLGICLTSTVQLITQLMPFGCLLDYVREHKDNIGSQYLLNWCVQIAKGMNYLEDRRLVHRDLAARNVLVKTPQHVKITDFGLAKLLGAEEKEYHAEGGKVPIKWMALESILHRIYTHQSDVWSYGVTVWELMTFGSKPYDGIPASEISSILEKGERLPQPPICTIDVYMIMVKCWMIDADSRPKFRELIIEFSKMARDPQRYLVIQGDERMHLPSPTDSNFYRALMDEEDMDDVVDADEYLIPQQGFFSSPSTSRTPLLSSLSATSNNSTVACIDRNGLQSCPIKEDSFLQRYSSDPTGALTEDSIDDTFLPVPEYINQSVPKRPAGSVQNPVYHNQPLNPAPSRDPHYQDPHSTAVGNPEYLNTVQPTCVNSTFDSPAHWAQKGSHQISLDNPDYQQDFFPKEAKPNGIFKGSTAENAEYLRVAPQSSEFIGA
Chain of EGFRΔ19del/T790M/C797S (P00533 with tags, fused parts or gaps DEL746-750/T790M/C797S, form open): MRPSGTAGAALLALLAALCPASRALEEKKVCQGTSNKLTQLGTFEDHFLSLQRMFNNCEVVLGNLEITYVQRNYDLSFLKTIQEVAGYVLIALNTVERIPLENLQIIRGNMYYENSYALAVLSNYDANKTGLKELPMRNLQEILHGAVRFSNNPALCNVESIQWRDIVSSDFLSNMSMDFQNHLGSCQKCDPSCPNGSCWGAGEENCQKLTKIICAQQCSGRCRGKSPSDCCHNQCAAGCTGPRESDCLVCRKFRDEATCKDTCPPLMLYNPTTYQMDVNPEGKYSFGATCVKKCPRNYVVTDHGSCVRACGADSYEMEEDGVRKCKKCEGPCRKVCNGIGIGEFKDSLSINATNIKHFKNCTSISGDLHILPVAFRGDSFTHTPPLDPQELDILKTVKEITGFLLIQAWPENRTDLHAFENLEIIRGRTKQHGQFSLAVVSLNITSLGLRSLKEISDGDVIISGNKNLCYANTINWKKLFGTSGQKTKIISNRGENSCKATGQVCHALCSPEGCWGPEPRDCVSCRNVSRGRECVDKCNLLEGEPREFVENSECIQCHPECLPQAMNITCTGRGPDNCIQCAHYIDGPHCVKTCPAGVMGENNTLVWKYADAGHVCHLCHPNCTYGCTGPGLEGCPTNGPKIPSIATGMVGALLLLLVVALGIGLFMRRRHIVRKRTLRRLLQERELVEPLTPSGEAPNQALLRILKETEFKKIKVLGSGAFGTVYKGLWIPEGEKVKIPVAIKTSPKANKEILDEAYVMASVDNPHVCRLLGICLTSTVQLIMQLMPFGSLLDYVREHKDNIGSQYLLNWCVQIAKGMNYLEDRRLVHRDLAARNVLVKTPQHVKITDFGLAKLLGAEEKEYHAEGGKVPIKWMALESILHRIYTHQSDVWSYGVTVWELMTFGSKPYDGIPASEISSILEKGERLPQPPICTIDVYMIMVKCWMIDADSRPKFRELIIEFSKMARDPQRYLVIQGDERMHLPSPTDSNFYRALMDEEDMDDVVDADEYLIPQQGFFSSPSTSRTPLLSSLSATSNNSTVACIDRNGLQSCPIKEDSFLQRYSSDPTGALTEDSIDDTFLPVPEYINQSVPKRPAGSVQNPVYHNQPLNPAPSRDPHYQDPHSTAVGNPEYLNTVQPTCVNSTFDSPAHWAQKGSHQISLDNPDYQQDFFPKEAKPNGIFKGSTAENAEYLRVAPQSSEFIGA
Chain of Ba/F3 cells with EGFR Δ19del/T790M/C797S mutation gene stably overexpressed (P00533 with tags, fused parts or gaps DEL746-750/T790M/C797S, form open): as above

GI50 [1] [nM]	GI50 [2] [nM]	IC50 (A431) [nM]	IC50 (EGFRΔ19del/T790M/C797S) [nM]	IC50 (IGF1R) [nM]	IC50 (EGFR WT) [nM]	SMILES
352						CCOc1ncc(-c2ccc(Nc3nc(Nc4cc(CC)c(N5CCC(N6CCN(C)CC6)CC5)cc4OC)ncc3Br)c(P(C)(C)=O)c2)cn1 [Compound K-059, (2-((5-Bromo-2-((5-ethyl-2-methoxy-4-(4-(4-methylpiperazin-1-yl)piperidin-1-yl)phenyl)amino)pyrimidin-4-yl)amino)-5-(2-ethoxypyrimidin-5-yl)phenyl)dimethylphosphine oxide]
152						CCc1cc(Nc2ncc(Br)c(Nc3ccc(-c4cnc(C5CC5)cn4)cc3P(C)(C)=O)n2)c(OC)cc1N1CCC(N2CCN(C)CC2)CC1 [Compound K-064, (2-((5-Bromo-2-((5-ethyl-2-methoxy-4-(4-(4-methylpiperazin-1-yl)piperidin-1-yl)phenyl)amino)pyrimidin-4-yl)amino)-5-(5-cyclopropylpyrazin-2-yl)phenyl)dimethylphosphine oxide]
524						CCc1cc(Nc2ncc(Br)c(Nc3ccc(-c4ncc(C(C)C)cn4)cc3P(C)(C)=O)n2)c(OC)cc1N1CCC(N2CCN(C)CC2)CC1 [Compound K-056, (2-((5-Bromo-2-((5-ethyl-2-methoxy-4-(4-(4-methylpiperazin-1-yl)piperidin-1-yl)phenyl)amino)pyrimidin-4-yl)amino)-5-(5-isopropylpyrimidin-2-yl)phenyl)dimethylphosphine oxide]
150	16.8		1.4	394	1130	COc1cnn(-c2ccc(Nc3nc(Nc4cc(C)c(N5CCOCC5)c(OC)c4)ncc3Br)c(P(C)(C)=O)c2)c1 [Compound K-031, (2-((5-Bromo-2-((3-methoxy-5-methyl-4-morpholinophenyl)amino)pyrimidin-4-yl)amino)-5-(4-methoxy-1H-pyrazol-1-yl)phenyl)dimethylphosphine oxide]
1120	28.6	5770				CCc1cc(Nc2ncc(Br)c(Nc3ccc(-c4cnn(C(C)C)n4)cc3P(C)(C)=O)n2)c(OC)cc1N1CCC(N2CCN(C)CC2)CC1 [Compound 85, (2-((5-Bromo-2-((5-ethyl-2-methoxy-4-(4-(4-methylpiperazin-1-yl)piperidin-1-yl)phenyl)amino)pyrimidin-4-yl)amino)-5-(2-isopropyl-2H-l,2,3-triazol-4-yl)phenyl)dimethylphosphine oxide]
	9.7	14300	0.6	109	19.5	CCc1cc(Nc2ncc(Br)c(Nc3ccc(-c4ccc(C#N)cc4)cc3P(C)(C)=O)n2)c(OC)cc1N1CCC(N2CCN(C)CC2)CC1 [Compound 10]
293						CCc1cc(Nc2ncc(Cl)c(Nc3ccc(-c4nn(C)cc4C#N)cc3P(C)(C)=O)n2)c(OC)cc1N1CCC(N2CCN(C)CC2)CC1 [Compound K-060, 3-(4-((5-Chloro-2-((5-ethyl-2-methoxy-4-(4-(4-methylpiperazin-1-yl)piperidin-1-yl)phenyl)amino)pyrimidin-4-yl)amino)-3-(dimethylphosphineoxide)phenyl)-1-methyl-1H-pyrazol-4-carbonitrile]
	13.2	1270	0.7	126	20.3	CCc1cc(Nc2ncc(Cl)c(Nc3ccc(-c4ncc(F)cn4)cc3P(C)(C)=O)n2)c(OC)cc1N1CCC(N2CCN(C)CC2)CC1 [Compound 18, (2-((5-Chloro-2-((5-ethyl-2-methoxy-4-(4-(4-methylpiperazin-1-yl)piperidin-1-yl)phenyl)amino)pyrimidin-4-yl)amino)-5-(5-fluoropyrimidin-2-yl)phenyl)dimethylphosphine oxide]

The next lines start with the compound.

SMILES	GI50 [1] [nM]	GI50 [2] [nM]	IC50 (A431) [nM]	IC50 (EGFRΔ19del/T790M/C797S) [nM]	IC50 (IGF1R) [nM]	IC50 (EGFR WT) [nM]
CCc1cc(Nc2ncc(Br)c(Nc3ccc(-c4cnc(C)c(C)n4)cc3P(C)(C)=O)n2)c(OC)cc1N1CCC(N2CCN(C)CC2)CC1 [Compound K-067, (2-((5-Bromo-2-((5-ethyl-2-methoxy-4-(4-(4-methylpiperazin-1-/l)piperidin-1-yl)phenyl)amino)pyrimidin-4-yl)amino)-5-(5,6-dimethylpyrazin-2-yl)phenyl)dimethylphosphine oxide]	417					
CCc1cc(Nc2ncc(Br)c(Nc3ccc(-c4cnn(C)c4)cc3P(C)(C)=O)n2)c(OC)cc1N1CCC(N2CCCC2)CC1 [Compound K-001]	335	15.6	371			
COc1cnn(-c2ccc(Nc3nc(Nc4cc(-c5cnn(C)c5)c(N5CCN(C6CCCC6)CC5)cc4OC)ncc3Br)c(P(C)(C)=O)c2)c1 [Compound K-081]	52.1	1	379			
CCc1cc(Nc2ncc(Br)c(Nc3ccc(-c4cnc(C)cn4)cc3P(C)(C)=O)n2)c(OC)cc1N1CCC(N2CCN(C)CC2)CC1 [Compound K-065, (2-((5-Bromo-2-((5-ethyl-2-methoxy-4-(4-(4-methylpiperazin-1-yl)piperidin-1-yl)phenyl)amino)pyrimidin-4-yl)amino)-5-(5-methylpyrazin-2-yl)phenyl)dimethylphosphine oxide]	132					
CCc1cc(Nc2ncc(Br)c(Nc3ccc(-c4ccc(C)nc4)cc3P(C)(C)=O)n2)c(OC)cc1N1CCC(N2CCN(C)CC2)CC1 [Compound K-070, (2-((5-Bromo-2-((5-ethyl-2-methoxy-4-(4-(4-methylpiperazin-1-yl)piperidin-1-yl)phenyl)amino)pyrimidin-4-yl)amino)-5-(6-methylpyridin-3-yl)phenyl)dimethylphosphine oxide]	238					
CCc1cc(Nc2ncc(Br)c(Nc3ccc(-c4cnn(C(F)F)n4)cc3P(C)(C)=O)n2)c(OC)cc1N1CCC(N2CCN(C)CC2)CC1 [Compound K-006, (2-((5-Bromo-2-((5-ethyl-2-methoxy-4-(4-(4-methylpiperazin-1-yl)piperidin-1-yl)phenyl)amino)pyrimidin-4-yl)amino)-5-(2-(difluoromethyl)-2H-1,2,3-triazol-4-yl)phenyl)dimethylphosphine oxide]	180	11.6	1270			
COc1cc(N2CCC(N3CCCCC3)CC2)c(-c2cnn(C)c2)cc1Nc1ncc(Br)c(Nc2ccc(-c3ccccc3)c(C)c2P(C)(C)=O)n1 [Compound K-051]	15.8	1.4	125			
CCc1cc(Nc2ncc(Br)c(Nc3ccc(-c4cnc(N(C)C)nc4)cc3P(C)(C)=O)n2)c(OC)cc1N1CCC(N2CCN(C)CC2)CC1 [Compound K-057, (2-((5-Bromo-2-((5-ethyl-2-methoxy-4-(4-(4-methylpiperazin-1-yl)piperidin-1-yl)phenyl)amino)pyrimidin-4-yl)amino)-5-(2-(dimethylamino)pyrimidin-5-yl)phenyl)dimethylphosphine oxide]	206					
CCc1cc(Nc2ncc(Br)c(Nc3ccc(-c4cnc(C)c(C)n4)cc3P(C)(C)=O)n2)c(OC)cc1N1CCC(N2CCN(C)CC2)CC1 [Compound 81, (2-((5-Bromo-2-((5-ethyl-2-methoxy-4-(4-(4-methylpiperazin-1-yl)piperidin-1-yl)phenyl)amino)pyrimidin-4-yl)amino)-5-(5,6-dimethylpyrazin-2-yl)phenyl)dimethylphosphine oxide]		16.8	875	0.6	142	12.6
CCc1cc(Nc2ncc(Br)c(Nc3ccc(-c4cnc(N(C)C)nc4)cc3P(C)(C)=O)n2)c(OC)cc1N1CCC(N2CCN(C)CC2)CC1 [Compound 74, (2-((5-Bromo-2-((5-ethyl-2-methoxy-4-(4-(4-methylpiperazin-1-yl)piperidin-1-yl)phenyl)amino)pyrimidin-4-yl)amino)-5-(2-(dimethylamino)pyrimidin-5-yl)phenyl)dimethylphosphine oxide]		15.7	1560	0.3	186	24
